Laboratory results from ChEMBL document CHEMBL1141209, “Carbonic anhydrase inhibitors: inhibition of the human isozymes I, II, VA, and IX with a library of substituted difluoromethanesulfonamides” (Bioorg Med Chem Lett, 2005).

Key:
[1] = molecular target: Carbonic anhydrase 9 (Homo sapiens, UniProt Q16790)
Description: Inhibition of cloned human transmembrane, tumor-associated isozyme CA IX

[2] = molecular target: Carbonic anhydrase 2 (Homo sapiens, UniProt P00918)
Description: Inhibition of recombinant human cytosolic isozyme CA II

[3] = molecular target: Carbonic anhydrase 1 (Homo sapiens, UniProt P00915)
Description: Inhibition of recombinant human cytosolic isozyme CA I

[4] = molecular target: Carbonic anhydrase 5A, mitochondrial (Homo sapiens, UniProt P35218)
Sequence of Carbonic anhydrase 5A, mitochondrial (P35218 whole entry): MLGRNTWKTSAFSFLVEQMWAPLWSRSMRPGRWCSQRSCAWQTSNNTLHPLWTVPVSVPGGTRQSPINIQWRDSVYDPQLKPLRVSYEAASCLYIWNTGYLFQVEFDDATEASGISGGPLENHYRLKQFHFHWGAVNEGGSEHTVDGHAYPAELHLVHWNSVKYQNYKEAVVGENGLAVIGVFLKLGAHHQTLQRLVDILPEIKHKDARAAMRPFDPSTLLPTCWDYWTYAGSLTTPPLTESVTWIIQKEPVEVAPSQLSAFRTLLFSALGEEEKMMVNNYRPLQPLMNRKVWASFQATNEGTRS
Description: Inhibition of recombinant human mitochondrial isozyme CA VA

Sequence of Carbonic anhydrase 1 (P00915 whole entry): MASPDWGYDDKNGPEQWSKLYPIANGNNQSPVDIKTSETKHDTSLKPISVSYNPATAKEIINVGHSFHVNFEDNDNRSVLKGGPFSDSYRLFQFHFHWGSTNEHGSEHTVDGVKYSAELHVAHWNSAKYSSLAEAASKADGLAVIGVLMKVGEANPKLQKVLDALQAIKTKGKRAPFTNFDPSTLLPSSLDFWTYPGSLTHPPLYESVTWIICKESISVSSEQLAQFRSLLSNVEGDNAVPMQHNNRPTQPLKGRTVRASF

Structure (SMILES) | Ki [1] | Ki [2] | Ki [3] | Ki [4]
NS(=O)(=O)C(F)(F)c1ccc(Br)cc1 | 7730 nM |  |  | 
NS(=O)(=O)C(F)(F)c1cccc(Br)c1 | 1490 nM |  |  | 
Cc1cc(=O)oc2cc(C(F)(F)S(N)(=O)=O)ccc12 | 195 nM |  |  | 
Cc1cc(=O)oc2cc(OS(N)(=O)=O)ccc12 |  | 25 nM |  | 
C[C@]12CC[C@@H]3c4ccc(C(F)(F)S(N)(=O)=O)cc4CC[C@H]3[C@@H]1CCC2=O | 1730 nM | 670 nM | 96 nM | 129 nM
NS(=O)(=O)C(F)(F)c1ccccc1Br | 9280 nM |  |  | 
NS(=O)(=O)C(F)(F)c1ccc([N+](=O)[O-])cc1 | 2420 nM |  |  | 
C[C@]12CC[C@@H]3c4ccc(CS(N)(=O)=O)cc4CC[C@H]3[C@@H]1CCC2=O | 208 nM | 80 nM | 116 nM | 1460 nM
Cc1ccc(C(F)(F)S(N)(=O)=O)cc1 | 250 nM |  |  | 
NS(=O)(=O)Cc1ccccc1 [PHENYLMETHANESULFONAMIDE] | 9300 nM |  |  | 
Cc1cc(=O)oc2cc(CS(N)(=O)=O)ccc12 | 240 nM |  |  | 
NS(=O)(=O)C(F)(F)c1ccccc1 [PHENYLDIFLUOROMETHANESULFONAMIDE] | 8500 nM |  |  | 
